From PubChem BioAssay AID248 (DTP/NCI, 2004)
Several values for one entry are separate records, joined by “and”; a condition that tells them apart may be missing. Identical values can stand only once. Inconclusive results and toxic doses are left out. Rule as the data show it: active = T/C of 150% or more; inactive = T/C below 125%.

Tested on: L1210 leukemia ip in BDF1 mice, survival T/C
Assay: NCI In Vivo Anticancer Drug Screen. Data for tumor model L1210 Leukemia (intraperitoneal) in B6D2F1 (BDF1) mice
Details: endpoint: mean survival time, higher = longer survival
Procedure, shortened: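 Tumor cells were implanted, animals were treated, and survival was followed. The result divides the treated measurement by the vehicle-control measurement.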

[1] = dose: 100.0 mg/kg/injection, schedule: Q01DX009 (ip), vehicle: saline with Tween-80
[2] = dose: 200.0 mg/kg/injection, schedule: Q01DX009 (ip), vehicle: saline with Tween-80
[3] = dose: 400.0 mg/kg/injection, schedule: Q01DX009 (ip), vehicle: saline with Tween-80
[4] = dose: 25.0 mg/kg/injection, schedule: Q04DX003 (ip), vehicle: saline
[5] = dose: 50.0 mg/kg/injection, schedule: Q01DX009 (ip), vehicle: Klucel (hydroxypropylcellulose) (HPC)
[6] = dose: 50.0 mg/kg/injection, schedule: Q04DX003 (ip), vehicle: saline
[7] = dose: 100.0 mg/kg/injection, schedule: Q01DX009 (ip), vehicle: Klucel (hydroxypropylcellulose) (HPC)
[8] = dose: 100.0 mg/kg/injection, schedule: Q01DX Z (ip), vehicle: saline
[9] = dose: 100.0 mg/kg/injection, schedule: Q04DX003 (ip), vehicle: Klucel (hydroxypropylcellulose) (HPC)
[10] = dose: 100.0 mg/kg/injection, schedule: Q04DX003 (ip), vehicle: saline
[11] = dose: 200.0 mg/kg/injection, schedule: Q01DX009 (ip), vehicle: Klucel (hydroxypropylcellulose) (HPC)
[12] = dose: 400.0 mg/kg/injection, schedule: Q01DX009 (ip), vehicle: Klucel (hydroxypropylcellulose) (HPC)
[13] = dose: 200.0 mg/kg/injection, schedule: Q04DX003 (ip), vehicle: Klucel (hydroxypropylcellulose) (HPC)
[14] = dose: 100.0 mg/kg/injection, schedule: Q04DX002 (ip), vehicle: Klucel (hydroxypropylcellulose) (HPC)
[15] = dose: 200.0 mg/kg/injection, schedule: Q04DX002 (ip), vehicle: Klucel (hydroxypropylcellulose) (HPC)
[16] = dose: 400.0 mg/kg/injection, schedule: Q04DX002 (ip), vehicle: Klucel (hydroxypropylcellulose) (HPC)
[17] = dose: 200.0 mg/kg/injection, schedule: Q04DX003 (ip), vehicle: saline
[18] = dose: 400.0 mg/kg/injection, schedule: Q04DX003 (ip), vehicle: saline
[19] = dose: 50.0 mg/kg/injection, schedule: Q04DX003 (ip), vehicle: saline with Tween-80

Measured: T/C

CCCCCCCCCCCC[N+](C)(C)Cc1ccccc1 (tested in a mixture with another compound)
inactive: dose: 2.0 mg/kg/injection, schedule: Q01DX015 (ip), vehicle: saline 105 % of control | dose: 4.0 mg/kg/injection, schedule: Q01DX015 (ip), vehicle: saline 94 % of control | dose: 8.0 mg/kg/injection, schedule: Q01DX015 (ip), vehicle: saline 103 % of control

NC(=O)c1[nH]cnc1/N=N/N(CCO)Cc1ccccc1
inactive: dose: 50.0 mg/kg/injection, schedule: Q01DX001 (ip), vehicle: water 98 % of control | dose: 50.0 mg/kg/injection, schedule: Q04DX003 (ip), vehicle: water 105 % of control | dose: 100.0 mg/kg/injection, schedule: Q01DX001 (ip), vehicle: water 96 % of control | [1] 98 % of control | dose: 100.0 mg/kg/injection, schedule: Q04DX003 (ip), vehicle: water 105 % of control | dose: 200.0 mg/kg/injection, schedule: Q01DX001 (ip), vehicle: water 98 % of control | [2] 102 % of control | dose: 200.0 mg/kg/injection, schedule: Q04DX003 (ip), vehicle: water 101 % of control | dose: 400.0 mg/kg/injection, schedule: Q01DX001 (ip), vehicle: water 101 % of control | [3] 95 % of control | dose: 400.0 mg/kg/injection, schedule: Q04DX003 (ip), vehicle: water 97 % of control

Nc1cc(N)nc(S(=O)O)n1
inactive: [4] 93 % of control | dose: 44.0 mg/kg/injection, schedule: Q01DX Z (ip), vehicle: saline 119 % of control | [5] 95 % of control | [6] 92 % of control | dose: 66.0 mg/kg/injection, schedule: Q01DX Z (ip), vehicle: saline 113 % of control | [7] 95 % of control | [8] 101 % of control | [9] 107 % of control | [10] 101 % of control | [11] 89 % of control

NC1=Nc2cccc3cccc(c23)N1
inactive: dose: 12.5 mg/kg/injection, schedule: Q01DX009 (ip), vehicle: Klucel (hydroxypropylcellulose) (HPC) 95 % of control | dose: 12.5 mg/kg/injection, schedule: Q04DX003 (ip), vehicle: Klucel (hydroxypropylcellulose) (HPC) 95 % of control | dose: 25.0 mg/kg/injection, schedule: Q01DX009 (ip), vehicle: Klucel (hydroxypropylcellulose) (HPC) 93 % of control | dose: 25.0 mg/kg/injection, schedule: Q04DX003 (ip), vehicle: Klucel (hydroxypropylcellulose) (HPC) 92 % of control | [5] 90 % of control | dose: 50.0 mg/kg/injection, schedule: Q04DX003 (ip), vehicle: Klucel (hydroxypropylcellulose) (HPC) 98 % of control

O=S(=O)(O)O.[NH-]CC(N)=O.[NH-]CC(N)=O.[Ni+2]
inactive: dose: 6.25 mg/kg/injection, schedule: Q01DX009 (ip), vehicle: water 109 % of control | dose: 12.5 mg/kg/injection, schedule: Q01DX009 (ip), vehicle: water 97 % of control | dose: 25.0 mg/kg/injection, schedule: Q01DX009 (ip), vehicle: water 90 % of control

CC(/C=C/C=C/c1ccccc1)=N\O
inactive: [7] 98 % of control | [11] 90 % of control | [12] 96 % of control

CNC(=O)Nc1ccc(C)c(Cl)c1
inactive: [7] 100 % of control | [9] 102 % of control | [11] 90 % of control | [13] 102 % of control | [12] 106 % of control | dose: 400.0 mg/kg/injection, schedule: Q04DX003 (ip), vehicle: Klucel (hydroxypropylcellulose) (HPC) 104 % of control

S=C(NCC1CCCO1)Nc1cccc2ccccc12 (stereo not drawn)
inactive: [14] 95 % of control | [15] 91 % of control | [16] 95 % of control

C(/CCc1ccccc1)=N\Nc1nnc(N/N=C/CCc2ccccc2)c2ccccc12
inactive: dose: 50.0 mg/kg/injection, schedule: Q01DX001 (ip), vehicle: carboxymethylcellulose (CMC) 102 % of control | dose: 100.0 mg/kg/injection, schedule: Q01DX001 (ip), vehicle: carboxymethylcellulose (CMC) 105 % of control | dose: 200.0 mg/kg/injection, schedule: Q01DX001 (ip), vehicle: carboxymethylcellulose (CMC) 102 % of control

O=P(O)(O)c1ccc(N=Nc2ccc(P(=O)(O)O)cc2)cc1
inactive: [10] 94 % of control | [17] 107 % of control | [18] 97 % of control

CCc1nc2ccccc2c(=O)n1-c1ccc(Cl)cc1
inactive: dose: 50.0 mg/kg/injection, schedule: Q01DX009 (ip), vehicle: saline with Tween-80 92 % of control | [1] 95 % of control

Nc1nc(N)nc(SCCOCCSc2nc(N)nc(N)n2)n1
inactive: [1] 103 % of control | [2] 94 % of control | [3] 92 % of control

COc1ccc(-n2nnnc2N)cc1
inactive: dose: 100.0 mg/kg/injection, schedule: Q01DX001 (ip), vehicle: Klucel (hydroxypropylcellulose) (HPC) 99 % of control | dose: 200.0 mg/kg/injection, schedule: Q01DX001 (ip), vehicle: Klucel (hydroxypropylcellulose) (HPC) 102 % of control | dose: 400.0 mg/kg/injection, schedule: Q01DX001 (ip), vehicle: Klucel (hydroxypropylcellulose) (HPC) 96 % of control

CC1CC(Cc2ccccc2CC2CC(C)OC2=O)C(=O)O1 (stereo not drawn)
inactive: [10] 90 % of control | [17] 89 % of control | [18] 89 % of control

CCCCCCCCOc1ccc(/C=N\N=C\c2ccc(OCCCCCCCC)cc2)cc1
inactive: [1] 105 % of control | [2] 91 % of control | [3] 92 % of control

O=[N+]([O-])c1ccccc1O
inactive: [1] 98 % of control | [2] 107 % of control | [3] 100 % of control

O=C1Nc2ccccc2C1(O)c1ccccc1 (stereo not drawn)
inactive: dose: 75.0 mg/kg/injection, schedule: Q01DX001 (ip), vehicle: saline 103 % of control | dose: 150.0 mg/kg/injection, schedule: Q01DX001 (ip), vehicle: saline 101 % of control | dose: 300.0 mg/kg/injection, schedule: Q01DX001 (ip), vehicle: saline 92 % of control

S=C(NCc1ccccc1)C(=S)NCc1ccccc1
inactive: [9] 105 % of control | [13] 98 % of control

CC1CCCCC1(C)C1C=CC(=O)OC1(C)C (stereo not drawn)
inactive: [4] 97 % of control | [6] 97 % of control | [10] 97 % of control

O=[N+]([O-])c1ccc(C=Nc2ccc3c(c2)C(Br)c2ccccc2-3)cc1 (stereo not drawn)
inactive: [8] 91 % of control | dose: 200.0 mg/kg/injection, schedule: Q01DX Z (ip), vehicle: saline 90 % of control | dose: 400.0 mg/kg/injection, schedule: Q01DX Z (ip), vehicle: saline 95 % of control

O=C(Nc1cccc(C(F)(F)F)c1)c1cccc(C(=O)Nc2cccc(C(F)(F)F)c2)c1
inactive: dose: 12.5 mg/kg/injection, schedule: Q04DX003 (ip), vehicle: saline with Tween-80 96 % of control | dose: 25.0 mg/kg/injection, schedule: Q04DX003 (ip), vehicle: saline with Tween-80 91 % of control | [19] 90 % of control

CCOC(=O)/C(C#N)=C/c1cc2c3c(c1)CCCN3CCC2
inactive: [19] 111 % of control | dose: 100.0 mg/kg/injection, schedule: Q04DX003 (ip), vehicle: saline with Tween-80 93 % of control | dose: 200.0 mg/kg/injection, schedule: Q04DX003 (ip), vehicle: saline with Tween-80 93 % of control | dose: 400.0 mg/kg/injection, schedule: Q04DX003 (ip), vehicle: saline with Tween-80 92 % of control

Cc1cc2oc(/C=N\Nc3nc4ccccc4s3)c(C)c2cc1C
inactive: [7] 94 % of control | [11] 96 % of control | [12] 108 % of control

CN(C)CCOC(=O)c1ccccc1CCl
inactive: dose: 10.0 mg/kg/injection, schedule: Q01DX009 (ip), vehicle: saline 101 % of control | dose: 20.0 mg/kg/injection, schedule: Q01DX009 (ip), vehicle: saline 98 % of control | dose: 40.0 mg/kg/injection, schedule: Q01DX009 (ip), vehicle: saline 98 % of control

CC(c1c[nH]c2ccccc12)C(N)C(=O)O (stereo not drawn)
inactive: [10] 95 % of control and 93 % of control | [17] 98 % of control and 92 % of control | [18] 95 % of control and 97 % of control

Cc1ccc(C)c(NCC(=O)NN)c1
inactive: [14] 103 % of control | [15] 100 % of control | [16] 100 % of control
